These results are taken from patent US6808877B2, “Ligands for FPR class receptors that induce a host immune response to a pathogen or inhibit HIV infection” (priority 2000, dated 2004).

“Also recorded” adds a separate entry of the source.

Holding throughout (assay type): cell-based, human
Test [1] relates to CCR5. The experiment in a line: CCR5 serine phosphorylation in monocytes (anti-phosphoserine IP, anti-CCR5 immunoblot). The settings on record: human monocytes; for serine phosphorylation of CCR5: 37° C. Here is the method:
Monocytes were isolated by counter-flow elutriation from the peripheral blood of normal donors (NIH Clinical Center, Transfusion Medicine Department, Bethesda, Md.) and enriched for mononuclear cells by using counter-flow elutriation. The purity of the cell preparations was examined by morphology after cytospin, and was >90%. The cells were stimulated with different concentrations of chemokines for indicated time periods at 37° C. and lysed for 20 min on ice with periodic mixing in lysis buffer (1% Triton X-100, 20 mM, Tris-HCl pH 8.0, 137 mM NaCl, 15% glycerol, 5 mM EDTA) containing phosphatase and protease inhibitors (1 mM phenylmethylsulfonyl fluoride, 5 μg/ml aprotinin, 5 μg/ml leupeptin, 1 mM sodium orthovanadate, 1 mM EGTA). Cell lysates were precleared with 30 µl of washed Protein-A sepherose beads (Pharmacia Biotech. Piscataway, N.J.), 1 μg of polyclonal anti-phospho-serine antibody (Zymed Laboratory Inc. South San Francisco, Calif.) was added to 200 μg cell lysates diluted with 2×immunoprecipitation (IP) buffer (1×buffer contains 1%Triton X-100, 10 mM Tris-HCl pH 7.4, 137 mM NaCl, 1 mM EDTA, 1 mM EGTA, 0.2 mM sodium orthovanadate, 0.2 mM PMSF, 0.5% NP-40). The reaction mixture was incubated at 4° C. overnight under constant rocking. The immune complex was captured by adding 50 μl of washed Protein-A sepharose beads (25 μl packed beads) and incubation of the reaction mixture at 4° C. for additional 2 hours. The beads were spun down (10 seconds at 14,000 rpm), the pellets were washed 3 times with ice-cold IP buffer, resuspended in 30 μl of 2×Laemmli sample buffer (126 mM Tris-HCl, 20% Glycerol, 4% SDS, 0.005% bromophenol blue with or without addition of 1% 2-mercaptoethanol, Novex, San Diego, Calif.) and boiled for 5 min to elute the immune complex. After electrophoresis on 4-12% SDS-PAGE precast gel (Novex), the proteins were transferred to Immobilon P membranes (Millipore, Bedford, Mass.). The membranes were blocked in freshly prepared PBS containing 3% dry milk 2 h, then were incubated with 1 μg/ml of polyclonal anti-CCR5 antibody (Millenium Biotechnology, Ramona, Calif.) overnight at 4° C. followed by washing 3 times with PBS containing 0.05% Tween 20. The membranes were incubated with a horse radish-peroxidase conjugated goat anti-rabbit IgG (1:5000) (Sigma, St. Louis, Mo.) in PBS containing 3% dry milk for 1 hour at room temperature with agitation. After washing 3 times with PBS-0.05% Tween 20, the membranes were incubated with Super Signal Chemiluminescent Substrate Stable Peroxide Solution (Pierce, Rockford, Ill.) for 1 min, and exposed to BIOMAX-MR film (Eastman Kodak Company, Rochester, N.Y.).
Monocytes stimulated with different concentrations of stimulants for indicated time periods at 37° C. were lysed for 20 min on ice with periodic mixing in lysis buffer [1% Triton X-100, 20 mM Tris-HCl (pH 8.0), 137 mM NaCl, 15% glycerol, 5 mM EDTA] containing phosphatase and protease inhibitors (1 mM phenylmethylsulfonyl fluoride, 5 μg/ml aprotinin, 5 μg/ml leupeptin, 1 mM sodium orthovanadate, 1 mM EGTA). Cell lysates were precleaned with 30 μl of washed Protein A Sepharose beads (15 μl packed beads) at 4° C. for 1 hour and 1 μg of polyclonal anti-phosphoserine antibody was added to 200 μg cell lysates diluted with 2×immunoprecipitation (IP) buffer [1×: 1% Triton X-100, 10 mM Tris-HCl (pH 7.4), 137 mM NaCl, 1 mM EDTA, 1 mM EGTA, 0.2 mM […], 0.2 mM PMSF, 0.5% NP-40]. The reaction mixture was incubated at 4° C. overnight under constant rocking. The immunecomplex was captured by adding 50 μl of washed Protein A sepharose beads (25 μl packed beads) and incubating the reaction mixture at 4° C. for an additional 2 hours. […]

Test [2] concerns monocytes. The test can be described thus: Ca2+ mobilization of monocytes in response to chemokines after preincubation (heterologous desensitization). The settings on record: 60 min, 37° C. Here is the method:
Calcium mobilization was measured by incubating monocytes (2×10^7/ml) in loading medium (DMEM, 10% FCS) with 5 μM Fura-2 AM (Molecular Probes, Eugene, Oreg.) for 30 min at room temperature in the dark. The dye-loaded cells were washed 3 times and resuspended in saline buffer (138 mM NaCl, 6 mM KCl, 1 mM CaCl2, 10 mM Hepes pH 7.4, 5 mM glucose, 0.1% BSA). The cells were then transferred into quartz cuvettes (2×10^6 cells in 2 ml) which were placed in a luminescence spectrometer (LS-50B, Perkin-Elmer, Beaconsfield, UK). Stimulants at different concentrations were added in a volume of 20 μl to each cuvette at the indicated time points. The ratio of fluorescence at 340 and 380 nm was calculated using a FL-WinLab program (Perkin Elmer). To examine the effect of fMLP, monocytes were preincubated with 10^−6 M fMLP or with medium alone for 60 min at 37° C. The cells were thoroughly washed and then were stained with Fura-2 for the calcium mobilization desensitization. The results are representative of at least three experiments performed.
(§1) Calcium mobilization was measured by incubating 2×10^7/ml cells in loading medium (DMEM, 10% FBS) with 5 μM Fura-2 AM (Molecular Probes, Eugene, Oreg.) for 30 min at room temperature in the dark. The dye-loaded cells were washed 3 times with loading medium and resuspended in saline buffer [138 mM NaCl, 6 mM KCl, 1 mM CaCl2, 10 mM HEPES (pH 7.4), 5 mM Glucose, 0.1% BSA] at a concentration of 1×10^6/ml. The cells were then transferred into quartz cuvettes (2 ml) which were placed in a luminescence spectrometer (LS-50B, Perkin-Elmer, Beaconsfield, England). Stimulants at different concentrations were added in a volume of 20 μl to each cuvette at the indicated time points. The ratio of fluorescence at 340 and 380 nm wavelength was calculated using a FL WinLab program (Perkin-Elmer).
Background: Calcium flux is commonly read through the fluorescence of an indicator in the cells.

The test system of test [3] is monocytes. The test can be described thus: Ca2+ mobilization in monocytes (Fura-2). Here is the method:
as §1
(§2) Calcium mobilization was assayed by incubating 2×10^7/ml of monocytes, neutrophils, FPRL1 or FPR transfectants in loading buffer containing 138 mM NaCl, 6 mM KCl, 1 mM CaCl2, 10 mM HEPES (pH 7.4), 5 mM glucose, 0.1% BSA with 5 μM Fura-2 (Sigma) at 37° C. for 30 min. The dye-loaded cells were washed and resuspended in fresh loading buffer. The cells were then transferred into quartz cuvettes (10^6 cells in 2 ml) which were placed in a luminescence spectrometer LS50 B (Perkin-Elmer Limited, Beaconsfield, England). Stimulants at different concentrations were added in a volume of 20 μl to the cuvettes at indicated time points. The ratio of fluorescence at 340 and 380 nm wavelength was calculated using the FL WinLab program (Perkin-Elmer).

The subject of test [4] is neutrophils. The experiment in a line: Ca2+ mobilization in neutrophils (Fura-2). Here is the method:
as §1, §2

Where [5] appears, read: concentrations in the micromolar range.
Setting [6] is: high concentration of fMLP (1 μM), V3 1.5 μM.

Consider `CSCC[C@H](NC=O)C(=O)N[C@@H](CC(C)C)C(=O)N[C@@H](Cc1ccccc1)C(=O)O` [fMLP, N-formyl-methionyl-leucyl-phenylalanine], for which the “time to increase in CCR5 phosphorylation after stimulation” value in test [1] is on record as at most 1 min. Besides, the “serine phosphorylation of CCR5” value in test [1] is “increased level of CCR5 phosphorylation; also recorded: induced CCR5 phosphorylation”. In addition, the “Ca2+ flux in response to RANTES and MIP-1α after pretreatment” value in test [2] (fMLP 10^−6 M) is listed as “reduced Ca^2+ flux”. Also, the “response to W peptide (Ca2+ flux)” value in test [3] (setting [5]) and in test [4] (setting [5]) was “significantly attenuated” throughout. In addition, the “signaling of V3 peptide on cross-desensitization” value in test [3] (setting [6]) and in test [4] (setting [6]) was “attenuated” in each case. Besides, the “effect on W peptide-induced Ca2+ flux” value in test [3] (low concentrations (nM range)) and in test [4] (low concentrations (nM range)) was “limited effect” each time.

As for “TRPNYNKRKRIHIGPGRAFYTTKNIIGTIRQAH-NH2 [V3 peptide]”, in test [1], the “time of maximal CCR5 phosphorylation” value amounted to 15 min and the “serine phosphorylation of CCR5” value is given as “induced significant serine phosphorylation of CCR5”. Further, in test [2] (1.5 μM), the “cell response (Ca2+) to MCP-1 and fMLP after preincubation” value is recorded as “minimally affected”; the “cell response (Ca2+) to RANTES and SDF-1α after preincubation” value is reported as “significantly reduced”. In addition, the “Ca2+ mobilization” value in test [3] is listed as “mobilized Ca^2+”. Moreover, in test [3] (V3 peptide 1.5 μM), the “attenuation of the cell response to chemokines including SDF-1α on sequential stimulation” value is “did not, however, attenuate”. In addition, the “Ca2+ mobilization” value in test [4] was “mobilized Ca^2+”.
